Patent publication US11780845B2 (Relay Therapeutics, Inc., priority 2019, dated 2023)

How the values were obtained:
FGFR2 = FGFR2 (Homo sapiens (Human), UniProt P21802); assay: FGFR2 Biochemical Caliper Assay
Procedure: Compounds of the present invention were also tested in a FGFR2 Biochemical Caliper Assay. Compounds were prepared in 10 mM DMSO solution and serially diluted into 11 concentrations by 3-fold dilution. […] 5 uL of ATP solution (100 uM) was added to start the reaction and the plate was incubated for 90 minutes, then 70 uL of stopping buffer (0.5M EDTA) was added to terminate the reaction. Each well was analyzed using EZ reader.

SNU16 cells = assay: SNU16 Cancer Cell Line Proliferation Assay; assay type: cell-based; conditions: Homo sapiens; SNU-16 cells
How it was run: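 SNU16 cells were seeded, held 24 h at 37 degrees, then dosed with an 11-point 3-fold dilution series prepared from a 10 mM DMSO stock. After 96 h incubation, viability was read by CellTiter Glo luminescence.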

FGFR2, sequence (P21802 22-821): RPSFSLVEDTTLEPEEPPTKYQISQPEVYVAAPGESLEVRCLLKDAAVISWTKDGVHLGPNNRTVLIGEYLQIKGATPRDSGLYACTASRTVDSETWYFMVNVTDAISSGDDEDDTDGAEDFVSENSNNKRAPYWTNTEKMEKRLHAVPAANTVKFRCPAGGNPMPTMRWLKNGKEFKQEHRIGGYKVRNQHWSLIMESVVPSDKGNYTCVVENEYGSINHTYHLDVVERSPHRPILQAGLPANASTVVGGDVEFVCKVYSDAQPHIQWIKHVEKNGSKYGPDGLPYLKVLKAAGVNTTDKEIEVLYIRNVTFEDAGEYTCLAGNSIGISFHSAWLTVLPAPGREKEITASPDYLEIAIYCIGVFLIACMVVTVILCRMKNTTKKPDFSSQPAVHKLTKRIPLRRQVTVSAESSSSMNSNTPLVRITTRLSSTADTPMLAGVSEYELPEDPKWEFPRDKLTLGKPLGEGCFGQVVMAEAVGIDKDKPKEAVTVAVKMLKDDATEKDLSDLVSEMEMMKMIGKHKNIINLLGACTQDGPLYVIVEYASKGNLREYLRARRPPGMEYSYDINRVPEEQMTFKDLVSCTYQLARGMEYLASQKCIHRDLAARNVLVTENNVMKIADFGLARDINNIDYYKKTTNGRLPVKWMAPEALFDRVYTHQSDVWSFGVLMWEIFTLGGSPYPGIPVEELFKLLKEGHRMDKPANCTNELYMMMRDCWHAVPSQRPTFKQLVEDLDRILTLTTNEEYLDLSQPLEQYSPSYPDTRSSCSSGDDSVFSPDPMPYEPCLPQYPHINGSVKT

Row | Structure (SMILES) | IC50 (FGFR2) [nM] | IC50 (SNU16 cells) [nM]
1 | C=C(C)C(=O)Nc1ccc(-c2c(-c3cc(F)c(Oc4nccc(C)n4)cc3F)c3c(N)ncnc3n2C)cc1 [Example 546] | < 100 | ≤ 100
2 | C=C(C)C(=O)Nc1ccc(-c2c(-c3ccc(Oc4nccc(C)n4)c(F)c3F)c3c(N)ncnc3n2C)cc1 [Example 552] | < 100 | ≤ 100
3 | C=Cc1ncc(-c2c(-c3ccc(C(=O)N4CCCC4)cc3)c3c(N)ncnc3n2C)cn1 [Example 554] | 250 to 1000 | 250 to 1000
4 | Cn1c(-c2ccc(NC(=O)CCl)cc2)c(-c2ccc(C(=O)N3CCCC3)cc2)c2c(N)ncnc21 [Example 558] | < 100 | ≤ 100
5 | C=C(C)C(=O)Nc1ccc(-c2c(-c3ccc(C(=O)N4CC5CC4C5)cc3F)c3c(N)ncnc3n2C)cc1 [Example 562] | 100 to 250 | ≤ 100
6 | C=C(C)C(=O)Nc1ccc(-c2c(-c3ccc(C(=O)N4CCCC4)cc3C#N)c3c(N)ncnc3n2C)cc1 [Example 563] | 1000 to 100000 | 250 to 1000
7 | C=C(C)C(=O)Nc1ccc(-c2c(-c3ccc(Oc4nccc(C)n4)cc3C#N)c3c(N)ncnc3n2C)cc1 [Example 564] | 1000 to 100000 | 250 to 1000
8 | C=C(C)C(=O)Nc1ccc(-c2c(-c3ccc(C(=O)NC4CC(F)C4)c(OC)c3)c3c(N)ncnc3n2C)cc1 (stereo not shown) [Example 566] | < 100 | ≤ 100
9 | C=C(C)C(=O)Nc1ccc(-c2c(-c3ccc(C(=O)NC4CC(F)C4)c(F)c3)c3c(N)ncnc3n2C)cc1 (stereo not shown) [Example 567] | 100 to 250 | ≤ 100
10 | C=C(C)C(=O)Nc1ccc(-c2c(-c3ccc(C(=O)NCC(F)(F)F)c(OC)c3)c3c(N)ncnc3n2C)cc1 [Example 568] | < 100 | ≤ 100
11 | C=C(C)C(=O)Nc1ccc(-c2c(-c3ccc(C(=O)N4CCCC4)cc3OC)c3c(N)ncnc3n2C)cc1 [Example 569] | 100 to 250 | 100 to 250
12 | C=C(C)C(=O)Nc1ccc(-c2c(-c3c(F)cc(Oc4nccc(C)n4)cc3F)c3c(N)ncnc3n2C)cc1 [Example 570] | < 100 | ≤ 100
13 | C=C(C)C(=O)Nc1ccc(-c2c(-c3ccc(Oc4nccc(C)n4)cc3C(F)F)c3c(N)ncnc3n2C)cc1 [Example 571] | 1000 to 100000 | 250 to 1000
14 | C=C(C)C(=O)Nc1ccc(-c2c(-c3ncc(Oc4nccc(C)n4)cc3F)c3c(N)ncnc3n2C)cc1 [Example 572] | < 100 | ≤ 100
15 | C=Cc1ncc2cc(-c3c(-c4ccc(C(=O)N5CCCC5)cc4)c4c(N)ncnc4n3C)ccc2n1 [Example 573] | 1000 to 100000 | 250 to 1000
16 | C=C(C)C(=O)Nc1ccc(-c2c(-c3ccc(C(=O)NCC4CCC4)c(F)c3)c3c(N)ncnc3n2C)nc1 [Example 589] | < 100 | ≤ 100
17 | Cn1c(-c2ccc(NC(=O)C3=CCC3)cc2)c(-c2ccc(C(=O)NCC3CCC3)c(F)c2)c2c(N)ncnc21 [Example 590] | < 100 | ≤ 100
18 | C=C(C)C(=O)Nc1ccc(-c2c(-c3ccc(Oc4nccc(C)n4)c(C(F)F)c3)c3c(N)ncnc3n2C)cc1 [Example 594] | 100 to 250 | ≤ 100
19 | C=Cc1ccc(-c2c(-c3ccc(Oc4nccc(C)n4)cc3)c3c(N)ncnc3n2C)cn1 [Example 598] | 100 to 250 | 250 to 1000

Row | Structure (SMILES) | IC50 (FGFR2) [nM] | IC50 (SNU16 cells) [nM]
20 | C=C(C)C(=O)Nc1ccc(-c2c(-c3ccc(Oc4nccc(C(F)F)n4)cc3)c3c(N)ncnc3n2C)cc1 [Example 600] | < 100 | ≤ 100
21 | C=C(C)C(=O)Nc1ccc(-c2c(C3=C(F)CC(C(=O)N4CCCC4)CC3)c3c(N)ncnc3n2C)cc1 (stereo not shown) [Example 601] | 1000 to 100000 | 250 to 1000
22 | C=CC(=O)N1CCC(n2cc(-c3c(-c4ccc(Oc5ccccc5)cc4)c4c(N)ncnc4n3C)cn2)CC1 [Example 602] | < 100 | ≤ 100
23 | C=CC(=O)N1CC=C(c2c(-c3ccc(Oc4ccccc4)cc3)c3c(N)ncnc3n2C)CC1 [Example 603] | < 100 | ≤ 100
24 | C=CC(=O)N1CCC(n2cc(-c3c(-c4ccc(Oc5ccccc5)cc4)c4c(N)ncnc4n3C)cn2)C(O)C1 (stereo not shown) [Example 607] | < 100 | ≤ 100
25 | C=CC(=O)N1CCC(n2cc(-c3c(-c4ccc(Oc5cccc(C)n5)cc4)c4c(N)ncnc4n3C)cn2)CC1 [Example 608] | < 100 | ≤ 100
26 | CCC(=O)N1CCC(n2cc(-c3c(-c4ccc(Oc5ccccc5)cc4)c4c(N)ncnc4n3C)cn2)CC1 [Example 617] | 100 to 250 | 250 to 1000
27 | C=CC(=O)N1CCC(n2cc(-c3c(-c4ccc(OC)cc4)c4c(N)ncnc4n3C)cn2)CC1 [Example 618] | < 100 | ≤ 100
28 | C=CC(=O)N1CCC(c2c(-c3ccc(Oc4cccc(C)n4)c(OC)c3)c3c(N)ncnc3n2C)CC1 [Example 619] | 100 to 250 | 100 to 250
29 | C=CC(=O)N1CC=C(c2c(-c3ccc(Oc4cccc(C)n4)c(OC)c3)c3c(N)ncnc3n2C)CC1 [Example 620] | < 100 | ≤ 100
30 | Cc1cccc(Oc2ccc(-c3c(-c4cnn(C5CCN(C(=O)/C=C/CN(C)C)CC5)c4)n(C)c4ncnc(N)c34)cc2)n1 [Example 621] | < 100 | ≤ 100
31 | C=C(C)C(=O)N1CCC(n2cc(-c3c(-c4ccc(Oc5cccc(C)n5)cc4)c4c(N)ncnc4n3C)cn2)CC1 [Example 622] | 250 to 1000 | 1000 to 100000
32 | C=CC(=O)NC1CC=C(c2c(-c3ccc(Oc4cccc(C)n4)c(OC)c3)c3c(N)ncnc3n2C)CC1 (stereo not shown) [Example 623] | 100 to 250 | 100 to 250
33 | C=CC(=O)N1CCCC(n2cc(-c3c(-c4ccc(Oc5ccccc5)cc4)c4c(N)ncnc4n3C)cn2)C1C (stereo not shown) [Example 626] | 100 to 250 | 250 to 1000
34 | C=CC(=O)N1CCCC(n2cc(-c3c(-c4ccc(Oc5cccc(C)n5)cc4)c4c(N)ncnc4n3C)cn2)C1C (stereo not shown) [Example 627] | < 100 | ≤ 100
35 | C=CC(=O)N(C)C1CC(n2cc(-c3c(-c4ccc(Oc5cccc(C)n5)cc4)c4c(N)ncnc4n3C)cn2)C1 (stereo not shown) [Example 628] | < 100 | ≤ 100
36 | C=CC(=O)N1CCCC(n2cc(-c3c(-c4ccc(Oc5cccc(C)n5)cc4)c4c(N)ncnc4n3C)cn2)C1 (stereo not shown) [Example 629] | < 100 | ≤ 100
37 | C=CC(=O)N1CCC(n2cc(-c3c(-c4ccc(Oc5cccc(C)n5)cc4)c4c(N)ncnc4n3C)cn2)C1 (stereo not shown) [Example 630] | < 100 | ≤ 100
38 | C=CC(=O)N1CCC(n2cc(-c3c(-c4ccc(Oc5cc(C)ccn5)cc4)c4c(N)ncnc4n3C)cn2)CC1 [Example 631] | 100 to 250 | 100 to 250

Row | Structure (SMILES) | IC50 (FGFR2) [nM] | IC50 (SNU16 cells) [nM]
39 | C=CC(=O)N1CCC(n2cc(-c3c(-c4ccc(Oc5cccc(C)n5)cc4)c4c(N)ncnc4n3C)c(C)n2)CC1 [Example 632] | < 100 | ≤ 100
40 | C=CC(=O)N1CCC(n2cc(-c3c(-c4ccc(Oc5ncccn5)cc4)c4c(N)ncnc4n3C)cn2)CC1 [Example 633] | 100 to 250 | 100 to 250
41 | C=CC(=O)N1CCC(n2cc(-c3c(-c4ccc(Oc5cccc(F)n5)cc4)c4c(N)ncnc4n3C)cn2)CC1 [Example 634] | < 100 | ≤ 100
42 | CC#CC(=O)N1CCC(n2cc(-c3c(-c4ccc(Oc5cccc(C)n5)cc4)c4c(N)ncnc4n3C)cn2)C1 (stereo not shown) [Example 635] | 100 to 250 | ≤ 100
43 | C=CC(=O)N1CCC(n2cc(-c3c(-c4ccc(Oc5ccc(C)cn5)cc4)c4c(N)ncnc4n3C)cn2)CC1 [Example 636] | 100 to 250 | ≤ 100
44 | C=CC(=O)N1CCC(n2ncc(-c3c(-c4ccc(Oc5cccc(C)n5)cc4)c4c(N)ncnc4n3C)c2C)CC1 [Example 637] | < 100 | ≤ 100
45 | C=CC(=O)N1CCC(n2cc(-c3c(-c4ccc(Oc5ccccn5)cc4)c4c(N)ncnc4n3C)cn2)CC1 [Example 638] | < 100 | ≤ 100
46 | C/C=C/C(=O)N1CC(n2cc(-c3c(-c4ccc(Oc5cccc(C)n5)cc4)c4c(N)ncnc4n3C)cn2)C1 [Example 639] | < 100 | ≤ 100
47 | C/C=C/C(=O)N1CCC(n2cc(-c3c(-c4ccc(Oc5cccc(C)n5)cc4)c4c(N)ncnc4n3C)cn2)C1 (stereo not shown) [Example 640] | < 100 | ≤ 100
48 | C=CC(=O)N1CCC(n2cc(-c3c(-c4ccc(Oc5cccc(C)n5)c(OC)c4)c4c(N)ncnc4n3C)cn2)CC1 [Example 641] | < 100 | ≤ 100
49 | C=CC(=O)N1CCC(n2cc(-c3c(-c4ccc(Oc5cnccn5)cc4)c4c(N)ncnc4n3C)cn2)CC1 [Example 642] | 250 to 1000 | 100 to 250
50 | C=C(CN1CCOCC1)C(=O)N1CCC(n2cc(-c3c(-c4ccc(Oc5cccc(C)n5)cc4)c4c(N)ncnc4n3C)cn2)CC1 [Example 643] | 250 to 1000 | 250 to 1000
51 | CC#CC(=O)N1CCC(n2cc(-c3c(-c4ccc(Oc5cccc(C)n5)cc4)c4c(N)ncnc4n3C)cn2)CC1 [Example 644] | 250 to 1000 | 250 to 1000
52 | C=CC(=O)N1CCC(c2c(-c3ccc(Oc4cccc(C)n4)cc3)c3c(N)ncnc3n2C)C1 (stereo not shown) [Example 645] | < 100 | ≤ 100
53 | Cc1cccc(Oc2ccc(-c3c(-c4cnn(C5CCN(C(=O)/C=C/CN6CCOCC6)CC5)c4)n(C)c4ncnc(N)c34)cc2)n1 [Example 646] | 100 to 250 | 100 to 250
54 | C=CC(=O)N1CCC(c2c(-c3ccc(Oc4cccc(C)n4)cc3)c3c(N)ncnc3n2C)CC1 [Example 647] | < 100 | ≤ 100
55 | C=CS(=O)(=O)N1CCC(n2cc(-c3c(-c4ccc(Oc5cccc(C)n5)cc4)c4c(N)ncnc4n3C)cn2)CC1 [Example 648] | < 100 | 100 to 250
56 | C/C=C/C(=O)N1CCC(n2cc(-c3c(-c4ccc(Oc5cccc(C)n5)cc4)c4c(N)ncnc4n3C)cn2)CC1 [Example 649] | 100 to 250 | 250 to 1000
